The source of these data is patent WO2005063245A1, “Composition for lowering blood pressure” (priority 2003, dated 2005).

Read-outs that look alike come from different tables or passages of the source.

For data set [1] the following is noted: Non-Patent Document 4; cited from earlier work.
A short description of data set [2]: Oral administration experiment with SHR rats (summary statement). In kind it is in vivo, rat.
Data set [3] is described as follows: Blood pressure lowering effect of samples (31)-(38) in SHR rats, same manner as Test example 6 (Table 11). In kind it is in vivo, rat. As to conditions: oral.
For data set [4] the following is noted: rats, intraperitoneal; Non-Patent Documents 5 and 6; cited from earlier work.
The nature of data set [5]: Test example 6: test of blood pressure lowering effect using SHR rats, samples (16)-(30) (Table 9). In kind it is in vivo, rat. The note with it: oral, mean ± SE, dose mg/kg: 17: 500, 18: 1.5, 19: 3.0, 20, 21, 24, 26, 27, 28, 30: 50, 22, 23: 20, 25, 29: 100.
Setting [6] is: n=5, 0 h (before administration), mean ± SE, dose mg/kg: 32, 33, 35, 36, 37: 20, 34: 23.4, 38: 32.4.
The mark [7] stands for this setting: n=5, 2 h after administration, mean ± SE, dose mg/kg: 32, 33, 35, 36, 37: 20, 34: 23.4, 38: 32.4.
Where [8] appears, read: n=5, 4 h after administration, mean ± SE, dose mg/kg: 32, 33, 35, 36, 37: 20, 34: 23.4, 38: 32.4.
Setting [9] is: n=5, column after 4 h, time not printed in this copy (line cut), dose mg/kg: 32, 33, 35, 36, 37: 20, 34: 23.4, 38: 32.4.

For the compound `N=C(N)NCCC[C@H](N)C(=O)O` [Sample 22, Arginine], in data set [1], the “blood pressure lowering effect” value is “blood pressure lowering effect in systole and diastole”; the heart rate entry is “increase in heart rate”.

In the case of `CC(C)C[C@H](N)C(=O)O` [Sample 21, Leucine], the “blood pressure during systole and diastole” value in data set [2] (SHR rats, oral administration) was “significantly reduce blood pressure during systole and diastole”. Also, the “effect on heart rate” value in data set [2] (rat, in vivo, po) was “without affecting the heart rate”. In addition, the systolic blood pressure turned out to be 189±1.7 in data set [3] (setting [6]), 162±1.0 in data set [3] (setting [7]), 162±2.7 in data set [3] (setting [8]) and 174 in data set [3] (setting [9]).

Turning to `CC[C@H](C)[C@H](N)C(=O)O` [Sample 20, Isoleucine], the “blood pressure during systole and diastole” value in data set [2] (SHR rats, oral administration) was “significantly reduce blood pressure during systole and diastole”. Besides, the “effect on heart rate” value in data set [2] (SHR rats, oral administration) is “without affecting the heart rate”. Also, the systolic blood pressure in data set [3] (setting [7]) is given as 163±2.5; in data set [3] (setting [8]), 162+2.6; in data set [3] (setting [9]), 180.

With `N[C@@H](Cc1c[nH]c2ccccc12)C(=O)O` [L-tributophan], the “blood pressure lowering effect” value in data set [4] was “blood pressure lowering effect”.

`N[C@@H](CCC(=O)O)C(=O)O` [glutamic acid]: in data set [2] (SHR rats, oral administration), the “blood pressure during systole and diastole” value was “significantly reduce blood pressure during systole and diastole”; the “effect on heart rate” value is listed as “without affecting the heart rate”.

For `N[C@@H](CCC(=O)[O-])C(=O)[O-].[Na+].[Na+]` [Sample 25, Sodium glutamate], the values for the systolic blood pressure in data set [3] (setting [7]) and in data set [3] (setting [9]) were 165±2 and 177, respectively.

As to `N[C@@H](Cc1ccc(O)cc1)C(=O)O` [Sample 38, Tyrosine, reference compound], the systolic blood pressure in data set [3] (setting [6]) is reported as 189±1.7; in data set [3] (setting [7]), 161 ±1.8; in data set [3] (setting [8]) it was 159±1.1; in data set [3] (setting [9]) it was 169. Also, the “blood pressure lowering effect” value in data set [4] is recorded as “blood pressure lowering effect”.

Take `N[C@@H](Cc1c[nH]cn1)C(=O)O` [Sample 23, Histidine]: in data set [2] (SHR rats, oral administration), the “blood pressure during systole and diastole” value was “significantly reduce blood pressure during systole and diastole”. Moreover, the “effect on heart rate” value in data set [2] (SHR rats, oral administration) was “without affecting the heart rate”. The systolic blood pressure in data set [3] (setting [6]) is listed as 186+1.7; in data set [3] (setting [7]) it was 152+3.3; in data set [3] (setting [8]), 157±1.6; in data set [3] (setting [9]), 171.

In the case of `N[C@@H](CO)C(=O)O` [Sample 36, Serine], the “blood pressure during systole and diastole” value in data set [2] (SHR rats, oral administration) is “significantly reduce blood pressure during systole and diastole”. For the same compound, in data set [2] (rat, in vivo, po), the “effect on heart rate” value is “without affecting the heart rate”. Also, the systolic blood pressure is reported as 190+2.0 in data set [3] (n=5, 0 h (before administration), mean ± SE, dose mg/kg: 32, 33, 35, 36, 37: 20, 34: 23.4, 38: 32.4, in mmHg); 164±1.4 in data set [3] (setting [7]); 158±3.7 in data set [3] (setting [8]); 172 in data set [3] (setting [9]).

For the compound `N[C@@H](Cc1ccccc1)C(=O)O` [Sample 37, phenylalanine], the “blood pressure during systole and diastole” value in data set [2] (SHR rats, oral administration) was “significantly reduce blood pressure during systole and diastole”. Also, the “effect on heart rate” value in data set [2] (SHR rats, oral administration) is recorded as “without affecting the heart rate”. Also, the systolic blood pressure in data set [3] (setting [6]) came out at 191±1.5; in data set [3] (setting [8]) it was 165±1.7; in data set [3] (setting [9]) it was 175.

For bovine serum albumin [Sample 17], the systolic blood pressure is recorded as 186 + 2.2 mmH in data set [5] (n=5, 0 h (before administration)); 169 + 1.8 mmH in data set [5] (n=5, 2 h after administration); 170 ± 0.5 mmH in data set [5] (n=5, 4 h after administration).
